{
  "source": "patent US20030162765A1",
  "about": "“2-amino-6-(2-substituted-4-phenoxy)-substituted-pyridines” (Pfizer Inc., priority 1997, published 2003)",
  "note": "Structures can show the parent of a compound that is named as a salt.",
  "data": [
    {"units": {"melting point": "°C"}, "values": [
      {"smiles": "COc1cc(-c2cccc(N)n2)ccc1OCCN(C)C", "note": "(as salt: hydrochloride) [Example 6, 6-[4-(2-Dimethylamino-ethoxy)-3-methoxy-phenyl]-pyridin-2-ylamine]", "melting point": "225 to 228"},
      {"smiles": "Cc1cc(-c2cccc(N)n2)c(C)cc1OCCN(C)C", "note": "(as salt: hydrochloride) [Example 110, 6-[4-(2-dimethylamino-ethoxy)-2,5-dimethyl-phenyl]-pyridin-2-ylamine]", "melting point": "205 to 209"},
      {"smiles": "CCOc1cc(-c2cccc(N)n2)ccc1OCCN(C)C", "note": "(as salt: hydrochloride) [Example 12, 6-[4-(2-Dimethylamino-ethoxy)-3-ethoxy-phenyl]-pyridin-2-ylamine]", "melting point": "210 to 216"},
      {"smiles": "Cc1cc(-c2cccc(N)n2)c(C)cc1OCCN1CCN(CCc2ccccc2)CC1", "note": "(as salt: hydrochloride) [Example 111, 6-[4-(2-(4-Phenethylpiperazin-1-yl)-ethoxy)-2,5-dimethyl-phenyl]-pyridin-2-ylamine]", "melting point": "> 220"},
      {"smiles": "COc1cc(-c2cccc(N)n2)ccc1OCCN1CCN(CCc2ccccc2)CC1", "note": "(as salt: hydrochloride) [Example 9, 6-{3-methoxy-4-[2-(4-phenethyl-piperazin-1-yl)-ethoxy]-phenyl}-pyridin-2-ylamine]", "melting point": "167 to 182"}
    ]}
  ]
}
